± gives the standard deviation of the averaged measurements.
Columns and labels:
Experiment in all cases: level (log10 ratio to DMSO vehicle control); higher = higher biomarker level / cell amount than vehicle control
Conditions in all cases: in DMSO
Hexafluoroglutaric acid = compound: O=C(O)C(F)(F)C(F)(F)C(F)(F)C(=O)O [Hexafluoroglutaric acid]
Procedure: (§1)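 BioMAP Diversity Plus panel of 12 human primary cell co-culture systems (3C, 4H, LPS, SAg, BT, BF4T, BE3C, CASM3C, HDF3CGF, KF3CT, MyoF, Mphg). Compounds were added 1 h before stimulation and left for 24 h (MyoF 48 h; BT 72 h for soluble read-outs or 6 d for IgG). Biomarkers were read by ELISA, cytotoxicity by SRB, PBMC viability and proliferation by Alamar Blue. Each well value was divided by the mean of 8 DMSO control wells on the same plate and log10 transformed; duplicate blinded samples were tested at 4 concentrations.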

[1] = compound: O=C(O)C(F)(F)C(F)(F)C(F)(F)C(F)(F)C(F)(F)C(F)(F)C(F)(F)C(F)(F)C(F)(F)C(F)(F)C(F)(F)C(F)(F)C(F)(F)F [Perfluorotetradecanoic acid]
Procedure: as §1

Perfluorohexanoic acid = compound: O=C(O)C(F)(F)C(F)(F)C(F)(F)C(F)(F)C(F)(F)F [Perfluorohexanoic acid]
Procedure: as §1

[2] = compound: C=CC(=O)OCCC(F)(F)C(F)(F)C(F)(F)C(F)(F)F [2-(Perfluorobutyl)ethyl acrylate]
Procedure: as §1

[3] = compound: O=S(=O)(O)C(F)(F)C(F)(F)C(F)(F)C(F)(F)C(F)(F)C(F)(F)C(F)(F)C(F)(F)F [Potassium perfluorooctanesulfonate]
Procedure: as §1

[4] = compound: FC(F)(F)C(F)(F)C(F)(F)C(F)(F)C(F)(F)C(F)(F)C(F)(F)CCI [1-Iodo-1H,1H,2H,2H-perfluorononane]
Procedure: as §1

[5] = compound: O=S(=O)(O)C(F)(F)C(F)(F)C(F)(F)C(F)(F)C(F)(F)C(F)(F)C(F)(F)C(F)(F)F [Perfluorooctanesulfonic acid]
Procedure: as §1

| Test System | level (log10) (Hexafluoroglutaric acid; 6700 nM) | level (log10) (Hexafluoroglutaric acid; 20000 nM) | level (log10) (Hexafluoroglutaric acid; 60000 nM) | level (log10) ([1]; 6700 nM) | level (log10) ([1]; 20000 nM) | level (log10) (Perfluorohexanoic acid; 6700 nM) | level (log10) (Perfluorohexanoic acid; 20000 nM) | level (log10) (Perfluorohexanoic acid; 60000 nM) | level (log10) ([2]; 6700 nM) | level (log10) ([2]; 20000 nM) | level (log10) ([2]; 60000 nM) | level (log10) ([3]; 6700 nM) | level (log10) ([3]; 20000 nM) | level (log10) ([3]; 60000 nM) | level (log10) ([4]; 6700 nM) | level (log10) ([4]; 20000 nM) | level (log10) ([5]; 6700 nM) | level (log10) ([5]; 20000 nM) | level (log10) ([5]; 60000 nM) |
| --- | --- | --- | --- | --- | --- | --- | --- | --- | --- | --- | --- | --- | --- | --- | --- | --- | --- | --- | --- |
| 3C:CD87/uPAR | -0.0075 ± 0.018 | -0.0105 ± 0.028 | 0.0025 ± 0.013 | 0.032 ± 0.081 | 0.0405 ± 0.073 | -0.0065 ± 0.0035 | -0.0115 ± 0.00071 | -0.01 ± 0.0099 | 0.0065 ± 0.00071 | 0.0145 ± 0.005 | 0.004 ± 0.017 | -0.0065 ± 0.076 | 0.002 ± 0.017 | 0.015 ± 0.048 | 0.0105 ± 0.019 | 0.0225 ± 0.016 | 0.04 ± 0.037 | 0.0285 ± 0.022 | 0.0235 ± 0.036 |
| 3C:CXCL8/IL-8 | -0.033 ± 0.0057 | -0.0185 ± 0.018 | 0.0015 ± 0.044 | -0.0045 ± 0.032 | 0.0485 ± 0.076 | -0.006 ± 0.0042 | 0.005 ± 0.0057 | 0.0635 ± 0.037 | -0.0155 ± 0.015 | -0.02 ± 0.0085 | 0.003 ± 0.024 | 0.0295 ± 0.044 | 0.027 ± 0.02 | 0.0555 ± 0.0064 | 0.0085 ± 0.011 | 0.0165 ± 0.005 | 0.009 ± 0.024 | 0.0095 ± 0.026 | 0.049 ± 0.047 |
| 3C:CXCL9/MIG | -0.014 ± 0.0085 | -0.005 ± 0.0042 | -0.0075 ± 0.0035 | -0.0045 ± 0.0035 | 0.0015 ± 0.0021 | -0.0065 ± 0.012 | -0.0045 ± 0.00071 | 0.0025 ± 0.012 | 0.0135 ± 0.013 | -0.011 ± 0.0099 | -0.0025 ± 0.0035 | 0.0085 ± 0.0092 | -0.003 ± 0.0042 | 0.013 ± 0.013 | 0.002 ± 0.0042 | 0.007 ± 0.013 | 0.0035 ± 0.00071 | -0.002 ± 0.0057 | 0.009 ± 0.0057 |
| 3C:HLA-DR | 0.0225 ± 0.035 | 0.0315 ± 0.047 | 0.038 ± 0.042 | -0.028 ± 0.03 | 0.0025 ± 0.037 | 0.002 ± 0.0042 | 0.004 ± 0.014 | -0.002 ± 0.0085 | 0.035 ± 0.013 | 0.0285 ± 0.0035 | -0.046 ± 0.058 | 0.0075 ± 0.0092 | 0.0075 ± 0.0021 | 0.0215 ± 0.0064 | -0.001 ± 0.017 | 0.0155 ± 0.025 | 0.0005 ± 0.011 | -0.0095 ± 0.021 | 0.0095 ± 0.023 |
| 3C:Proliferation | -0.0055 ± 0.0064 | -0.009 ± 0.068 | -0.0155 ± 0.054 | -0.306 ± 0.046 | -0.329 ± 0.15 | -0.0055 ± 0.012 | -0.006 ± 0.0028 | -0.01 ± 0.04 | -0.0445 ± 0.049 | -0.088 ± 0.028 | -0.304 ± 0.07 | -0.042 ± 0.035 | -0.0165 ± 0.061 | -0.0445 ± 0.0092 | -0.019 ± 0.0085 | -0.027 ± 0.0057 | 0.0055 ± 0.037 | 0.0115 ± 0.036 | -0.022 ± 0.044 |
| 3C:SRB | -0.004 ± 0.0014 | -0.005 ± 0.014 | 0.0075 ± 0.028 | -0.015 ± 0.0028 | -0.0165 ± 0.012 | -0.0065 ± 0.0078 | -0.011 ± 0.0057 | -0.001 ± 0.0028 | 0.0005 ± 0.021 | 0.0035 ± 0.0092 | -0.0345 ± 0.0078 | 0.0105 ± 0.025 | -0.0195 ± 0.033 | -0.045 ± 0.042 | 0.0125 ± 0.015 | 0.0295 ± 0.03 | 0.018 ± 0.0042 | -0.008 ± 0.0099 | -0.0625 ± 0.015 |
| 4H:CCL2/MCP-1 | -0.0095 ± 0.032 | -0.0135 ± 0.011 | 0.0245 ± 0.047 | -0.031 ± 0.0057 | 0.0115 ± 0.019 | -0.0105 ± 0.00071 | -0.027 ± 0.0071 | 0.012 ± 0.021 | -0.0405 ± 0.028 | -0.043 ± 0.037 | 0.009 ± 0.11 | 0.0095 ± 0.023 | -0.0305 ± 0.0064 | -0.0215 ± 0.025 | -0.0175 ± 0.019 | 0.0395 ± 0.1 | -0.001 ± 0.0085 | -0.0275 ± 0.021 | -0.0255 ± 0.005 |
| 4H:CCL26/Eotaxin-3 | 0.0155 ± 0.035 | 0.0155 ± 0.013 | 0.0235 ± 0.0078 | -0.0595 ± 0.019 | -0.0575 ± 0.047 | 0.0005 ± 0.005 | -0.004 ± 0.0099 | -0.015 ± 0.0071 | -0.0355 ± 0.039 | -0.006 ± 0.0071 | 0.0135 ± 0.0078 | 0.0085 ± 0.015 | -0.0495 ± 0.021 | -0.0665 ± 0.037 | 0.018 ± 0.0057 | -0.004 ± 0.028 | -0.014 ± 0.0014 | -0.032 ± 0.0028 | -0.0595 ± 0.0064 |
| 4H:CD62P/P-selectin | 0.0065 ± 0.0035 | -0.035 ± 0.0014 | -0.05 ± 0.064 | 0.0015 ± 0.011 | 0.0055 ± 0.021 | 0.0235 ± 0.064 | 0.0555 ± 0.032 | 0.0255 ± 0.028 | 0.0065 ± 0.064 | -0.064 ± 0.047 | -0.102 ± 0.036 | 0.0375 ± 0.015 | 0.085 ± 0.0042 | 0.086 ± 0.027 | 0.0005 ± 0.037 | -0.0185 ± 0.06 | 0.0345 ± 0.0078 | 0.061 ± 0.016 | 0.097 ± 0.018 |
| 4H:CD87/uPAR | -0.046 ± 0.023 | -0.027 ± 0.057 | -0.005 ± 0.031 | -0.0495 ± 0.097 | -0.0345 ± 0.14 | 0.0025 ± 0.042 | -0.002 ± 0.011 | 0.0205 ± 0.039 | -0.005 ± 0.038 | 0.0055 ± 0.0035 | 0.025 ± 0.0085 | 0.0655 ± 0.044 | 0.037 ± 0.033 | 0.082 ± 0.058 | 0.0135 ± 0.00071 | 0.0025 ± 0.026 | 0.07 ± 0.033 | 0.065 ± 0.014 | 0.0945 ± 0.049 |
| 4H:CD106/VCAM-1 | -0.005 ± 0.014 | -0.005 ± 0.03 | -0.0045 ± 0.012 | -0.0805 ± 0.037 | -0.0775 ± 0.0078 | -0.006 ± 0.028 | 0.0095 ± 0.00071 | 0.041 ± 0.045 | -0.0215 ± 0.013 | -0.0495 ± 0.056 | -0.123 ± 0.085 | 0.0085 ± 0.028 | -0.004 ± 0.016 | -0.0095 ± 0.023 | -0.003 ± 0.027 | -0.0585 ± 0.083 | 0.016 ± 0.0085 | -0.029 | -0.0155 ± 0.0064 |
| 4H:SRB | -0.0005 ± 0.0092 | 0.003 ± 0.016 | 0.011 ± 0.034 | -0.014 ± 0.028 | -0.0155 ± 0.063 | -0.002 ± 0.0057 | -0.0105 ± 0.00071 | 0.0045 ± 0.015 | -0.003 ± 0.0085 | 0.0105 ± 0.021 | -0.0205 ± 0.016 | -0.0105 ± 0.011 | 0.004 ± 0.024 | -0.0095 ± 0.023 | 0.0165 ± 0.0092 | 0.024 ± 0.024 | -0.0005 ± 0.012 | -0.0065 ± 0.011 | -0.0085 ± 0.023 |
| 4H:VEGFR2 | 0.0005 ± 0.016 | -0.04 ± 0.0099 | -0.0095 ± 0.0078 | 0.075 ± 0.11 | 0.084 ± 0.09 | -0.003 ± 0.021 | -0.009 ± 0.014 | -0.001 ± 0.024 | 0.01 | -0.006 ± 0.017 | -0.0035 ± 0.037 | 0.0245 ± 0.0021 | 0.01 ± 0.024 | 0.027 ± 0.0099 | -0.0015 ± 0.026 | 0.0225 ± 0.06 | 0.0265 ± 0.029 | 0.0155 ± 0.0064 | 0.019 ± 0.042 |
| BE3C:CD54/ICAM-1 | 0.018 ± 0.0042 | 0.0095 ± 0.018 | 0.009 ± 0.02 | -0.003 ± 0.025 | 0.015 ± 0.062 | 0.0065 ± 0.00071 | -0.0145 ± 0.0064 | -0.014 ± 0.013 | -0.0045 ± 0.0035 | -0.0175 ± 0.0064 | -0.037 ± 0.03 | 0.027 ± 0.0028 | 0.074 ± 0.024 | 0.0575 ± 0.0064 | 0.0115 ± 0.005 | -0.009 ± 0.016 | 0.016 ± 0.011 | 0.0665 ± 0.00071 | -0.263 ± 0.21 |
| BE3C:CD87/uPAR | -0.0045 ± 0.0092 | -0.01 ± 0.014 | -0.0125 ± 0.011 | 0.015 ± 0.034 | 0.065 ± 0.05 | -0.002 ± 0.0085 | -0.0105 ± 0.00071 | 0.0205 ± 0.00071 | 0.014 ± 0.021 | 0.0125 ± 0.025 | -0.018 ± 0.0071 | 0.0335 ± 0.022 | 0.081 ± 0.054 | 0.14 ± 0.025 | 0.0115 ± 0.018 | 0.016 ± 0.0014 | 0.0465 ± 0.005 | 0.081 ± 0.045 | 0.0355 ± 0.0021 |

From the supplement of paper PMC10331698
